Data published in PubChem BioAssay AID330 (DTP/NCI, 2004).
Several values for one entry are separate records, joined by “and”; a condition that tells them apart may be missing. Equal entries are not always repeated. Toxic doses and inconclusive results are not listed.

Test system: P388 leukemia ip, CD2F1 mice, survival T/C
Test: NCI In Vivo Anticancer Drug Screen. Data for tumor model P388 Leukemia (intraperitoneal) in CD2F1 (CDF1) mice
Conditions: endpoint: median survival time, higher = longer survival
Procedure, shortened: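 Mice carrying the transplanted tumor received test compound or vehicle. Survival was recorded in each group, and the value is the treated-group measurement divided by that of the vehicle-treated control group.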

[1] = dose: 100.0 mg/kg/injection, schedule: Q04DX002 (ip), vehicle: saline
[2] = dose: 200.0 mg/kg/injection, schedule: Q04DX002 (ip), vehicle: saline
[3] = dose: 400.0 mg/kg/injection, schedule: Q04DX002 (ip), vehicle: saline
[4] = dose: 100.0 mg/kg/injection, schedule: Q01DX009 (ip), vehicle: saline with Tween-80
[5] = dose: 200.0 mg/kg/injection, schedule: Q01DX009 (ip), vehicle: saline with Tween-80
[6] = dose: 50.0 mg/kg/injection, schedule: Q01DX005 (ip), vehicle: saline
[7] = dose: 100.0 mg/kg/injection, schedule: Q01DX005 (ip), vehicle: saline
[8] = dose: 50.0 mg/kg/injection, schedule: Q01DX005 (ip), vehicle: saline with Tween-80
[9] = dose: 100.0 mg/kg/injection, schedule: Q01DX005 (ip), vehicle: saline with Tween-80
[10] = dose: 200.0 mg/kg/injection, schedule: Q01DX005 (ip), vehicle: saline with Tween-80
[11] = dose: 50.0 mg/kg/injection, schedule: Q01DX009 (ip), vehicle: Klucel (hydroxypropylcellulose) (HPC)
[12] = dose: 100.0 mg/kg/injection, schedule: Q01DX009 (ip), vehicle: Klucel (hydroxypropylcellulose) (HPC)
[13] = dose: 200.0 mg/kg/injection, schedule: Q01DX009 (ip), vehicle: Klucel (hydroxypropylcellulose) (HPC)
[14] = dose: 12.5 mg/kg/injection, schedule: Q01DX009 (ip), vehicle: saline with Tween-80
[15] = dose: 50.0 mg/kg/injection, schedule: Q01DX009 (ip), vehicle: saline with Tween-80
[16] = dose: 200.0 mg/kg/injection, schedule: Q01DX005 (ip), vehicle: saline

CC(=O)NOCC1NC(=O)C(CONC(C)=O)NC1=O (stereo not given)
T/C (dose: 30.0 mg/kg/injection, schedule: Q01DX005 (ip), vehicle: saline): 103 % of control
T/C (dose: 60.0 mg/kg/injection, schedule: Q01DX005 (ip), vehicle: Klucel (hydroxypropylcellulose) (HPC)): 105 % of control
T/C (dose: 60.0 mg/kg/injection, schedule: Q01DX005 (ip), vehicle: saline): 103 % of control
T/C (dose: 120.0 mg/kg/injection, schedule: Q01DX005 (ip), vehicle: Klucel (hydroxypropylcellulose) (HPC)): 115 % of control
T/C (dose: 120.0 mg/kg/injection, schedule: Q01DX005 (ip), vehicle: saline): 108 % of control
T/C (dose: 240.0 mg/kg/injection, schedule: Q01DX005 (ip), vehicle: Klucel (hydroxypropylcellulose) (HPC)): 120 % of control
T/C (dose: 240.0 mg/kg/injection, schedule: Q01DX005 (ip), vehicle: saline): 120 % of control

O=[N+]([O-])c1ccc2c(c1)SC1=NN3C(O)COC(OCc4ccccc4)C3N12 (stereo not given)
T/C [1]: 97 % of control
T/C [2]: 100 % of control
T/C [3]: 93 % of control

COc1ccc2c(c1)OC/C(=C\c1ccc([N+](=O)[O-])o1)C2=O
T/C [4]: 91 % of control
T/C [5]: 86 % of control
T/C (dose: 400.0 mg/kg/injection, schedule: Q01DX009 (ip), vehicle: saline with Tween-80): 92 % of control

CC1(C)N=C(N)N=C(N)N1c1cc(C(F)(F)F)cc(C(F)(F)F)c1
T/C (dose: 7.5 mg/kg/injection, schedule: Q01DX005 (ip), vehicle: Klucel (hydroxypropylcellulose) (HPC)): 99 % of control
T/C (dose: 15.0 mg/kg/injection, schedule: Q01DX005 (ip), vehicle: Klucel (hydroxypropylcellulose) (HPC)): 94 % of control
T/C (dose: 30.0 mg/kg/injection, schedule: Q01DX005 (ip), vehicle: Klucel (hydroxypropylcellulose) (HPC)): 105 % of control

COc1cc(N(CCCl)CCCl)c(OC)cc1C=Nc1ccccc1C(=O)O
T/C (dose: 3.12 mg/kg/injection, schedule: Q01DX009 (ip), vehicle: suspension in saline): 114 % of control
T/C (dose: 25.0 mg/kg/injection, schedule: Q01DX009 (ip), vehicle: saline): 182 % of control

CCCCCCCCCOCC(COP(=O)([O-])OCC[N+](C)(C)C)OC (stereo not given)
T/C [6]: 99 % of control
T/C [7]: 103 % of control

CC(=O)OC1CC2C(C)(C)C(=O)C3OC3C2(C)C2CCC3(C)C(c4ccoc4)C(=O)C4OC43C12C (stereo not given)
T/C (dose: 0.38 mg/kg/injection, schedule: Q01DX005 (ip), vehicle: Klucel (hydroxypropylcellulose) (HPC)): 100 % of control
T/C (dose: 0.75 mg/kg/injection, schedule: Q01DX005 (ip), vehicle: Klucel (hydroxypropylcellulose) (HPC)): 100 % of control
T/C (dose: 1.5 mg/kg/injection, schedule: Q01DX005 (ip), vehicle: Klucel (hydroxypropylcellulose) (HPC)): 100 % of control
T/C (dose: 3.0 mg/kg/injection, schedule: Q01DX005 (ip), vehicle: Klucel (hydroxypropylcellulose) (HPC)): 100 % of control
T/C (dose: 6.0 mg/kg/injection, schedule: Q01DX005 (ip), vehicle: Klucel (hydroxypropylcellulose) (HPC)): 106 % of control

C#CCOC(=O)C12CCC(C)(C)CC1C1=CCC3C4(C)CCC(O)C(C)(CO)C4CCC3(C)C1(C)CC2 (stereo not given)
T/C (dose: 12.5 mg/kg/injection, schedule: Q01DX005 (ip), vehicle: saline with Tween-80): 101 % of control
T/C (dose: 25.0 mg/kg/injection, schedule: Q01DX005 (ip), vehicle: saline with Tween-80): 94 % of control

Cn1nnnc1NNc1nnnn1C
T/C [8]: 99 % of control
T/C [9]: 99 % of control
T/C [10]: 99 % of control

O=c1c2ccccc2n(-c2ccccc2)c2ccc(Cl)cc12
T/C [8]: 86 % of control
T/C [9]: 90 % of control

NC(=O)N/N=c1/oc2ccccc2cc1C(N)=O
T/C [1]: 98 % of control
T/C [2]: 98 % of control
T/C [3]: 96 % of control

CC1=CC(O)(CC(N)=O)C=C(C)C1=O
T/C (dose: 3.13 mg/kg/injection, schedule: Q01DX009 (ip), vehicle: distilled water + Tween-80): 100 % of control
T/C (dose: 6.25 mg/kg/injection, schedule: Q01DX009 (ip), vehicle: distilled water + Tween-80): 100 % of control
T/C (dose: 12.5 mg/kg/injection, schedule: Q01DX009 (ip), vehicle: distilled water + Tween-80): 99 % of control
T/C (dose: 25.0 mg/kg/injection, schedule: Q01DX009 (ip), vehicle: distilled water + Tween-80): 100 % of control
T/C (dose: 50.0 mg/kg/injection, schedule: Q01DX009 (ip), vehicle: distilled water + Tween-80): 100 % of control
T/C (dose: 100.0 mg/kg/injection, schedule: Q01DX009 (ip), vehicle: distilled water + Tween-80): 108 % of control
T/C (dose: 200.0 mg/kg/injection, schedule: Q01DX009 (ip), vehicle: distilled water + Tween-80): 108 % of control
T/C (dose: 400.0 mg/kg/injection, schedule: Q01DX009 (ip), vehicle: distilled water + Tween-80): 108 % of control

c1ccc(SCCOCCOCCSc2ccccn2)nc1
T/C (dose: 25.0 mg/kg/injection, schedule: Q01DX005 (ip), vehicle: Klucel (hydroxypropylcellulose) (HPC)): 103 % of control
T/C (dose: 50.0 mg/kg/injection, schedule: Q01DX005 (ip), vehicle: Klucel (hydroxypropylcellulose) (HPC)): 108 % of control
T/C (dose: 100.0 mg/kg/injection, schedule: Q01DX005 (ip), vehicle: Klucel (hydroxypropylcellulose) (HPC)): 111 % of control

Clc1nnc(C(Cl)Cl)o1
T/C [11]: 114 % of control
T/C [12]: 106 % of control
T/C [13]: 99 % of control

O=C1NNC(c2ccccc2)C1(Cl)Cl (stereo not given)
T/C [14]: 101 % of control
T/C [15]: 99 % of control

COC1=C(N)C(=O)c2cccnc2C1=O
T/C (dose: 3.13 mg/kg/injection, schedule: Q01DX009 (ip), vehicle: DMSO): 92 % of control
T/C (dose: 6.25 mg/kg/injection, schedule: Q01DX009 (ip), vehicle: DMSO): 92 % of control
T/C (dose: 12.5 mg/kg/injection, schedule: Q01DX009 (ip), vehicle: DMSO): 100 % of control
T/C (dose: 25.0 mg/kg/injection, schedule: Q01DX009 (ip), vehicle: DMSO): 109 % of control

C=C(C)CC1CN2CCc3cc(OC)c(OC)cc3C2CC1=O (stereo not given)
T/C [11]: 106 % of control
T/C [15]: 102 % of control
T/C [12]: 104 % of control
T/C [4]: 116 % of control

N#CCc1ccccc1Br
T/C [8]: 93 % of control
T/C [9]: 101 % of control

CC1(COC(=O)C2(C)CO2)CO1 (stereo not given)
T/C (dose: 25.0 mg/kg/injection, schedule: Q01DX005 (ip), vehicle: water): 99 % of control
T/C [6]: 91 % of control
T/C (dose: 50.0 mg/kg/injection, schedule: Q01DX005 (ip), vehicle: water): 101 % of control and 115 % of control
T/C [7]: 97 % of control
T/C (dose: 100.0 mg/kg/injection, schedule: Q01DX005 (ip), vehicle: water): 120 % of control
T/C [16]: 91 % of control

O=C(Nc1ccccc1C(=O)Nc1nccs1)c1ccccc1
T/C (dose: 60.0 mg/kg/injection, schedule: Q01DX005 (ip), vehicle: saline with Tween-80): 86 % of control
T/C (dose: 120.0 mg/kg/injection, schedule: Q01DX005 (ip), vehicle: saline with Tween-80): 93 % of control
T/C (dose: 240.0 mg/kg/injection, schedule: Q01DX005 (ip), vehicle: saline with Tween-80): 98 % of control

C[N+](C)(C)C.O=C([CH-]C(=O)C(F)(F)F)c1ccccc1.O=C([CH-]C(=O)C(F)(F)F)c1ccccc1.O=C([CH-]C(=O)C(F)(F)F)c1ccccc1.O=C([CH-]C(=O)C(F)(F)F)c1ccccc1.[Eu+3]
T/C (dose: 25.0 mg/kg/injection, schedule: Q01DX009 (ip), vehicle: Klucel (hydroxypropylcellulose) (HPC)): 99 % of control
T/C [11]: 106 % of control and 113 % of control
T/C [15]: 103 % of control
T/C [12]: 112 % of control and 117 % of control
T/C [4]: 99 % of control
T/C [13]: 113 % of control

CC(NC(=O)C(CO)NC(=O)CN)C(=O)O (stereo not given)
T/C [6]: 101 % of control
T/C [7]: 99 % of control
T/C [16]: 105 % of control

O=C1OCC/C1=C1/Nc2ccccc2NC1=O
T/C [15]: 89 % of control
T/C [5]: 91 % of control

CCn1nnnc1Nc1ccccc1
T/C [11]: 120 % of control
T/C [12]: 123 % of control
T/C [13]: 113 % of control

CC(C)[NH-].CC(C)[NH-].O.O.[Cl][Pt+2][Cl]
T/C (dose: 8.0 mg/kg/injection, schedule: Q01DX009 (ip), vehicle: saline with Tween-80): 167 % of control
T/C [14]: 184 % of control
T/C (dose: 18.0 mg/kg/injection, schedule: Q01DX009 (ip), vehicle: saline with Tween-80): 202 % of control

Cc1cc(C)c(-c2c(Br)c(OC(=O)CO[C@@H]3C[C@H](C)CC[C@H]3C(C)C)c(-c3c(C)cc(C)c(Br)c3C)c(Br)c2OC(=O)CO[C@@H]2C[C@H](C)CC[C@H]2C(C)C)c(C)c1Br
T/C [8]: 107 % of control
T/C [9]: 100 % of control
T/C [10]: 88 % of control
